Tests used:
[1] = Ratio of compound IC50 to (-)-gossypol IC50 for human U87 cells; assay type: functional, U-87MG ATCC
[2] = Ratio of compound IC50 to cisplatin IC50 for human U87 cells; assay type: functional, U-87MG ATCC
[3] = Ratio of compound IC50 to cisplatin IC50 for human M85 cells; assay type: functional
[4] = test system: HeLa; assay: Ratio of compound IC50 to cisplatin IC50 for human HeLa cells; assay type: functional
[5] = Anticancer activity against human U87 cells after 48 hrs by MTT assay; assay type: functional, cell-based, U-87MG ATCC
[6] = Ratio of compound IC50 to (-)-gossypol IC50 for human M85 cells; assay type: functional
[7] = test system: HeLa; assay: Anticancer activity against human HeLa cells after 48 hrs by MTT assay; assay type: functional, cell-based
[8] = test system: HeLa; assay: Ratio of compound IC50 to (-)-gossypol IC50 for human HeLa cells; assay type: functional
[9] = Anticancer activity against human M85 cells after 48 hrs by MTT assay; assay type: functional, cell-based

SMILES | Ratio IC50 [1] | Ratio IC50 [2] | Ratio IC50 [3] | Ratio IC50 [4] | IC50 ([5]; Homo sapiens, U-87 MG, 48 h) [µM] | Ratio IC50 [6] | IC50 ([7]; Homo sapiens, HeLa, 48 h) [µM] | Ratio IC50 [8] | IC50 ([9]; Homo sapiens, M85, 48 h) [µM] | IC50 ([5]; u-87mg atcc) [µM] | IC50 ([9]; m85) [µM] | IC50 ([7]; hela) [µM]
CC1=C(C2=C(C)C(=O)c3c(c(C=O)c(O)c(O)c3C(C)C)C2=O)C(=O)c2c(C=O)c(O)c(O)c(C(C)C)c2C1=O [GOSSYPOLONE] | 0.86 | 1.53 | 1.9 | 1.85 | 26.1 | 1.54 | 23.3 | 1.31 | 28.3 | – | – | –
COC(=O)[C@H](Cc1ccc(O)cc1)N/C=C1\C(=O)C(O)=C(C(C)C)c2cc(C)c(-c3c(C)cc4c(c3O)/C(=C/N[C@@H](Cc3ccc(O)cc3)C(=O)OC)C(=O)C(O)=C4C(C)C)c(O)c21 (stereo in doubt; 8a) | 1.06 | 1.88 | 3.52 | 1.73 | – | 2.84 | 21.8 | 1.22 | – | 32.1 | 52.4 | –
Cc1cc2c(c(O)c1-c1c(C)cc3c(c1O)/C(=C/N[C@H](CO)Cc1ccccc1)C(=O)C(O)=C3C(C)C)/C(=C/N[C@H](CO)Cc1ccccc1)C(=O)C(O)=C2C(C)C (stereo in doubt; 2b) | 0.97 | 1.71 | 1.04 | 1.17 | – | 0.84 | – | 0.83 | – | 29.3 | 15.5 | 14.7
Cc1cc2c(c(O)c1-c1c(C)cc3c(c1O)/C(=C/NC(C)C)C(=O)C(O)=C3C(C)C)/C(=C/NC(C)C)C(=O)C(O)=C2C(C)C (stereo in doubt; 10a) | 0.96 | 1.7 | 2.3 | 1.88 | 29.1 | 1.86 | 23.8 | 1.34 | 34.2 | – | – | –
